Measurements as given in PubChem BioAssay AID1845212 (Molecular Pharmacology Branch, DTP, NCI, 2023).

System: NCI-H719 tumor spheroids, viability
Assay: Anticancer human tumor NCI-H719 cell line growth inhibition;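 further: spheroids exposed to compounds for seven days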;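 on viability, T/C: percent viability relative to DMSO vehicle control as 100%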
Settings: spheroids with HUVEC and MSC; for IC50: curve of first compound; for viability, T/C: stronger effect = lower value
In short: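 Complex tumor spheroids combined malignant cells with endothelial cells and mesenchymal stem cells. DNA-damaging drugs and DNA repair inhibitors were tested alone and in combination, at half-log dilutions down from clinical Cmax (top 10 microM if Cmax unknown), 0.25% DMSO final.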

[1] = second compound 0.003 µM, first compound 0.00949 µM
[2] = second compound 0.003 µM, first compound 0.03 µM
[3] = second compound 0.003 µM, first compound 0.0949 µM
[4] = second compound 0.003 µM, first compound 0.3 µM
[5] = second compound 0.003 µM, first compound 0.949 µM
[6] = second compound 0.003 µM, first compound 3 µM
[7] = second compound 0.00949 µM, first compound 0.00949 µM
[8] = second compound 0.00949 µM, first compound 0.03 µM
[9] = second compound 0.00949 µM, first compound 0.0949 µM
[10] = second compound 0.00949 µM, first compound 0.3 µM
[11] = second compound 0.00949 µM, first compound 0.949 µM
[12] = second compound 0.00949 µM, first compound 3 µM
[13] = second compound 0.03 µM, first compound 0.00949 µM
[14] = second compound 0.03 µM, first compound 0.03 µM
[15] = second compound 0.03 µM, first compound 0.0949 µM
[16] = second compound 0.03 µM, first compound 0.3 µM
[17] = second compound 0.03 µM, first compound 0.949 µM
[18] = second compound 0.03 µM, first compound 3 µM
[19] = second compound 0.0949 µM, first compound 0.00949 µM
[20] = second compound 0.0949 µM, first compound 0.03 µM
[21] = second compound 0.0949 µM, first compound 0.0949 µM
[22] = second compound 0.0949 µM, first compound 0.3 µM
[23] = second compound 0.0949 µM, first compound 0.949 µM
[24] = second compound 0.0949 µM, first compound 3 µM
[25] = second compound 0.3 µM, first compound 0.00949 µM
[26] = second compound 0.3 µM, first compound 0.03 µM
[27] = second compound 0.3 µM, first compound 0.0949 µM
[28] = second compound 0.3 µM, first compound 0.3 µM
[29] = second compound 0.3 µM, first compound 0.949 µM
[30] = second compound 0.3 µM, first compound 3 µM

How did the IC50 (second compound 0.003 µM) turn out when `Cc1sc2c(c1C)C(c1ccc(Cl)cc1)=NC(CC(=O)Nc1ccc(O)cc1)c1nnc(C)n1-2` (stereo not given) + CC[C@@]1(O)C(=O)OCc2c1cc1n(c2=O)Cc2cc3c(CN(C)C)c(O)ccc3nc2-1 was run?
The IC50 was less than 9.49 nM.

And the IC50 (second compound 0.00949 µM)?
The IC50 was less than 9.49 nM.

What about the IC50 (second compound 0.03 µM) of the same molecule?
The IC50 was less than 9.49 nM.

And the IC50 (second compound 0.0949 µM)?
The IC50 was less than 9.49 nM.

What about the IC50 (second compound 0.3 µM) of the same molecule?
The IC50 was less than 9.49 nM.

And the viability, T/C [1]?
The viability, T/C was 42.6%.

What about the viability, T/C [2] of the same molecule?
Its viability, T/C is 31.5%.

What about the viability, T/C [3] of the same molecule?
The viability, T/C was 9.86%.

What about the viability, T/C [4] of the same molecule?
Its viability, T/C is 4.37%.

What about the viability, T/C [5] of the same molecule?
The viability, T/C was 2.57%.

And the viability, T/C [6]?
Its viability, T/C is 1.57%.

And the viability, T/C [7]?
The viability, T/C was 5.64%.

What about the viability, T/C [8] of the same molecule?
The viability, T/C was 5.14%.

What about the viability, T/C [9] of the same molecule?
The viability, T/C was 5%.

And the viability, T/C [10]?
The viability, T/C was 4.27%.

And the viability, T/C [11]?
Its viability, T/C is 2.51%.

What about the viability, T/C [12] of the same molecule?
Its viability, T/C is 2.02%.

And the viability, T/C [13]?
The viability, T/C was 4.76%.

And the viability, T/C [14]?
The viability, T/C was 4.99%.

What about the viability, T/C [15] of the same molecule?
Its viability, T/C is 4.72%.

And the viability, T/C [16]?
Its viability, T/C is 3.7%.

What about the viability, T/C [17] of the same molecule?
The viability, T/C was 2.76%.

And the viability, T/C [18]?
The viability, T/C was 1.87%.

And the viability, T/C [19]?
The viability, T/C was 4.97%.

And the viability, T/C [20]?
Its viability, T/C is 4.42%.

What about the viability, T/C [21] of the same molecule?
Its viability, T/C is 4.02%.

What about the viability, T/C [22] of the same molecule?
The viability, T/C was 3.47%.

What about the viability, T/C [23] of the same molecule?
The viability, T/C was 2.28%.

What about the viability, T/C [24] of the same molecule?
The viability, T/C was 1.46%.

What about the viability, T/C [25] of the same molecule?
Its viability, T/C is 5.22%.

What about the viability, T/C [26] of the same molecule?
Its viability, T/C is 4.7%.

And the viability, T/C [27]?
Its viability, T/C is 3.68%.

And the viability, T/C [28]?
Its viability, T/C is 2.55%.

And the viability, T/C [29]?
Its viability, T/C is 1.67%.

And the viability, T/C [30]?
The viability, T/C was 0.66%.

What does the source list for `COc1ccc([C@@H](O)c2cc(-c3ncnc4cc(N5CCOCC5)ccc34)c(F)cc2Cl)nn1` + CC[C@@]1(O)C(=O)OCc2c1cc1n(c2=O)Cc2cc3c(CN(C)C)c(O)ccc3nc2-1?
IC50 (second compound 0.003 µM): < 31.6 nM; IC50 (second compound 0.00949 µM): < 31.6 nM; IC50 (second compound 0.03 µM): < 31.6 nM; IC50 (second compound 0.0949 µM): < 31.6 nM; IC50 (second compound 0.3 µM): < 31.6 nM; viability, T/C (second compound 0.003 µM, first compound 0.0316 µM): 42.3%; viability, T/C (second compound 0.003 µM, first compound 0.1 µM): 46.7%; viability, T/C (second compound 0.003 µM, first compound 0.316 µM): 42.6%; viability, T/C (second compound 0.003 µM, first compound 1 µM): 38.4%; viability, T/C (second compound 0.003 µM, first compound 3.16 µM): 30.1%; viability, T/C (second compound 0.003 µM, first compound 10 µM): 10.6%; viability, T/C (second compound 0.00949 µM, first compound 0.0316 µM): 8.42%; viability, T/C (second compound 0.00949 µM, first compound 0.1 µM): 6.63%; viability, T/C (second compound 0.00949 µM, first compound 0.316 µM): 6.02%; viability, T/C (second compound 0.00949 µM, first compound 1 µM): 6.07%; viability, T/C (second compound 0.00949 µM, first compound 3.16 µM): 6.61%; viability, T/C (second compound 0.00949 µM, first compound 10 µM): 5.88%; viability, T/C (second compound 0.03 µM, first compound 0.0316 µM): 5.79%; viability, T/C (second compound 0.03 µM, first compound 0.1 µM): 6.19%; viability, T/C (second compound 0.03 µM, first compound 0.316 µM): 5.16%; viability, T/C (second compound 0.03 µM, first compound 1 µM): 5.17%; viability, T/C (second compound 0.03 µM, first compound 3.16 µM): 4.89%; viability, T/C (second compound 0.03 µM, first compound 10 µM): 3.08%; viability, T/C (second compound 0.0949 µM, first compound 0.0316 µM): 6.51%; viability, T/C (second compound 0.0949 µM, first compound 0.1 µM): 7.08%; viability, T/C (second compound 0.0949 µM, first compound 0.316 µM): 5.96%; viability, T/C (second compound 0.0949 µM, first compound 1 µM): 5.16%; viability, T/C (second compound 0.0949 µM, first compound 3.16 µM): 3.45%; viability, T/C (second compound 0.0949 µM, first compound 10 µM): 1.55%; viability, T/C (second compound 0.3 µM, first compound 0.0316 µM): 7.33%; viability, T/C (second compound 0.3 µM, first compound 0.1 µM): 7.08%; viability, T/C (second compound 0.3 µM, first compound 0.316 µM): 6.09%; viability, T/C (second compound 0.3 µM, first compound 1 µM): 3.58%; viability, T/C (second compound 0.3 µM, first compound 3.16 µM): 1.58%; viability, T/C (second compound 0.3 µM, first compound 10 µM): 1.36%

Which results are given for `CNCc1ccc(-c2cc(-c3nc(-c4ccc(S(=O)(=O)C(C)C)cc4)cnc3N)on2)cc1` + CC[C@@]1(O)C(=O)OCc2c1cc1n(c2=O)Cc2cc3c(CN(C)C)c(O)ccc3nc2-1?
IC50 (second compound 0.003 µM): 11.2 nM; IC50 (second compound 0.00949 µM): < 9.49 nM; IC50 (second compound 0.03 µM): < 9.49 nM; IC50 (second compound 0.0949 µM): < 9.49 nM; IC50 (second compound 0.3 µM): < 9.49 nM; viability, T/C [1]: 51%; viability, T/C [2]: 42.9%; viability, T/C [3]: 15.8%; viability, T/C [4]: 7.57%; viability, T/C [5]: 6.32%; viability, T/C [6]: 0.12%; viability, T/C [7]: 12.4%; viability, T/C [8]: 6.06%; viability, T/C [9]: 6.36%; viability, T/C [10]: 7.36%; viability, T/C [11]: 7.1%; viability, T/C [12]: 0.13%; viability, T/C [13]: 5.87%; viability, T/C [14]: 9.07%; viability, T/C [15]: 6.09%; viability, T/C [16]: 8.62%; viability, T/C [17]: 7.57%; viability, T/C [18]: 0.1%; viability, T/C [19]: 5.51%; viability, T/C [20]: 6.14%; viability, T/C [21]: 7.1%; viability, T/C [22]: 8.34%; viability, T/C [23]: 8.45%; viability, T/C [24]: 0.11%; viability, T/C [25]: 6.1%; viability, T/C [26]: 6.24%; viability, T/C [27]: 7.61%; viability, T/C [28]: 8.16%; viability, T/C [29]: 6.89%; viability, T/C [30]: 0.15%
